Reference: US20260015325A1, “ALKOXY HETEROARYL- CARBOXAMIDE OR THIOAMIDE COMPOUNDS” (SYNGENTA CROP PROTECTION AG, priority 2022, published 2026)
Read-outs that look alike come from different tables or passages of the source.

Experiments:
Type in all cases: in vivo
[1] = tested on: Bemisia tabaci (Cotton White Fly); assay: Bemisia tabaci (Cotton White Fly): feeding/contact activity, cotton leaf discs; conditions: foliar, 144 h
Protocol: Example B1: Bemisia tabaci (Cotton White Fly): Feeding/Contact Activity
Cotton leaf discs were placed on agar in 24-well microtiter plates and sprayed with aqueous test solutions prepared from 10′000 ppm DMSO stock solutions. After drying the leaf discs were infested with adult white flies. The samples were checked for mortality 6 days after incubation.

[2] = tested on: Euschistus heros (Neotropical Brown Stink Bug); assay: Euschistus heros (Neotropical Brown Stink Bug), soybean leaves; conditions: 120 h, read-out: effect in at least one of the two categories (mortality or growth inhibition); for percent effect (mortality or growth inhibition) at 200 ppm: application rate of 200 ppm, N2 nymphs on sprayed soybean leaves, 5 days after infestation
Protocol: Example B4: Euschistus heros (Neotropical Brown Stink Bug)
Soybean leaves on agar in 24-well microtiter plates were sprayed with aqueous test solutions prepared from 10′000 ppm DMSO stock solutions. After drying the leaves were infested with N2 nymphs. The samples were assessed for mortality and growth inhibition in comparison to untreated samples 5 days after infestation.

[3] = tested on: Myzus persicae (Green Peach Aphid); assay: Myzus persicae (Green Peach Aphid): feeding/contact activity, sunflower leaf discs; conditions: foliar, 144 h
Protocol: Example B6: Myzus persicae (Green Peach Aphid): Feeding/Contact Activity
Sunflower leaf discs were placed onto agar in a 24-well microtiter plate and sprayed with aqueous test solutions prepared from 10′000 ppm DMSO stock solutions. After drying, the leaf discs were infested with an aphid population of mixed ages. The samples were assessed for mortality 6 days after infestation.

[4] = tested on: Myzus persicae (Green Peach Aphid); assay: Myzus persicae (Green Peach Aphid): systemic activity, pea seedlings; conditions: 144 h
Protocol: Example B7: Myzus persicae (Green Peach Aphid). Systemic Activity
Roots of pea seedlings infested with an aphid population of mixed ages were placed directly into aqueous test solutions prepared from 10′000 DMSO stock solutions. The samples were assessed for mortality 6 days after placing seedlings into test solutions.

[5] = tested on: Myzus persicae (Green Peach Aphid); assay: Myzus persicae (Green Peach Aphid): intrinsic activity, sucrose solution; conditions: 120 h
Source text: Example B8: Myzus persicae (Green Peach Aphid). Intrinsic Activity
Test compounds prepared from 10′000 ppm DMSO stock solutions were applied by pipette into 24-well microtiter plates and mixed with sucrose solution. The plates were closed with a stretched Parafilm. A plastic stencil with 24 holes was placed onto the plate and infested pea seedlings were placed directly on the Parafilm. The infested plate was closed with a gel blotting paper and another plastic stencil and then turned upside down. The samples were assessed for mortality 5 days after infestation.

[6] = tested on: Tetranychus urticae (Two-Spotted Spider Mite); assay: whole plant or invertebrate; conditions: foliar, 192 h
Protocol: Example B11: Tetranychus urticae (Two-Spotted Spider Mite): Feeding/Contact Activity
Bean leaf discs on agar in 24-well microtiter plates were sprayed with aqueous test solutions prepared from 10′000 ppm DMSO stock solutions. After drying the leaf discs were infested with a mite population of mixed ages. The samples were assessed for mortality on mixed population (mobile stages) 8 days after infestation.

[7] = tested on: Frankliniella occidentalis (Western Flower Thrips); assay: Frankliniella occidentalis (Western Flower Thrips): feeding/contact activity, sunflower leaf discs; conditions: foliar, 168 h, application rate of 200 ppm, mixed ages on sprayed sunflower leaf discs, 7 days after infestation
Protocol: Example B5: Frankliniella occidentalis (Western Flower Thrips): Feeding/Contact Activity
Sunflower leaf discs were placed on agar in 24-well microtiter plates and sprayed with aqueous test solutions prepared from […] stock solutions. After drying the leaf discs were infested with a Frankliniella population of mixed ages. The samples were assessed for mortality 7 days after infestation.

[8] = application rate of 200 ppm, adult white flies on sprayed cotton leaf discs, 6 days after incubation, read-out: mortality
[9] = application rate of 200 ppm, mixed ages on sprayed sunflower leaf discs, 6 days after infestation, read-out: mortality
[10] = test rate of 24 ppm, systemic, roots of infested pea seedlings in test solution, 6 days, read-out: mortality
[11] = test rate of 12 ppm, intrinsic, mixed with sucrose solution under Parafilm, 5 days after infestation, read-out: mortality
[12] = application rate of 200 ppm, mixed population (mobile stages) on sprayed bean leaf discs, 8 days after infestation, read-out: mortality

C[C@@H](COc1cnc(Cl)c(C(=O)NC2(C#N)CC2)c1)N(CC#N)S(=O)(=O)C(F)(F)F [Compound P-8, 2-chloro-N-(1-cyanocyclopropyl)-5-[(2S)-2-[cyanomethyl(trifluoromethylsulfonyl)amino]propoxy]pyridine-3-carboxamide]
≥ 80%: mortality at 200 ppm [1, 8] | percent effect (mortality or growth inhibition) at 200 ppm [2] | mortality at 200 ppm [3, 9] | mortality at 24 ppm [4, 10] | mortality at 12 ppm [5, 11] | mortality at 200 ppm [6, 12]

COCN([C@@H](C)COc1cnc(Cl)c(C(=O)N(C(C)=O)C2CC2)c1)S(=O)(=O)C(F)(F)F [Compound P-12, N-acetyl-2-chloro-N-cyclopropyl-5-[(2S)-2-[methoxymethyl(trifluoromethylsulfonyl)amino]propoxy]pyridine-3-carboxamide]
≥ 80%: mortality at 200 ppm [1, 8] | percent effect (mortality or growth inhibition) at 200 ppm [2] | mortality at 200 ppm [3, 9] | mortality at 12 ppm [5, 11] | mortality at 200 ppm [6, 12]

CC(C)C(=O)OCN([C@@H](C)COc1cnc(Cl)c(C(=O)NC2CC2)c1)S(=O)(=O)C(F)(F)F [Compound P-13, [[(1S)-2-[[6-chloro-5-(cyclopropylcarbamoyl)-3-pyridyl]oxy]-1-methyl-ethyl]-(trifluoromethylsulfonyl)amino]methyl 2-methylpropanoate]
≥ 80%: mortality at 200 ppm [1, 8] | mortality at 200 ppm [3, 9] | mortality at 24 ppm [4, 10] | mortality at 12 ppm [5, 11] | mortality at 200 ppm [6, 12]

COC(=O)N([C@@H](C)COc1cnc(Cl)c(C(=O)NC2CC2)c1)S(=O)(=O)C(F)(F)F [Compound P-14, methyl N-[(1S)-2-[[6-chloro-5-(cyclopropylcarbamoyl)-3-pyridyl]oxy]-1-methyl-ethyl]-N-(trifluoromethylsulfonyl)carbamate]
≥ 80%: mortality at 200 ppm [1] | percent control (mortality or growth inhibition) at 200 ppm [2] | mortality at 200 ppm [3] | mortality at 24 ppm [4] | mortality at 12 ppm [5] | mortality at 200 ppm [6]

C[C@@H](COc1cnc(Cl)c(C(=O)NC2CC2)c1)N(CC#N)S(=O)(=O)C(F)(F)F [Compound P-15, 2-chloro-5-[(2S)-2-[cyanomethyl (trifluoromethylsulfonyl)amino]propoxy]-N-cyclopropyl-pyridine-3-carboxamide]
≥ 80%: mortality at 200 ppm [1, 8] | percent effect (mortality or growth inhibition) at 200 ppm [2] | mortality at 200 ppm [3, 9] | mortality at 24 ppm [4, 10] | mortality at 12 ppm [5, 11] | mortality at 200 ppm [6, 12]

C[C@@H](COc1cnc(Cl)c(C(=O)NC2CC2)c1)N(C)S(=O)(=O)C(F)(F)F [Compound P-16, 2-chloro-N-cyclopropyl-5-[(2S)-2-[methyl(trifluoromethylsulfonyl)amino]propoxy]pyridine-3-carboxamide]
≥ 80%: percent effect (mortality or growth inhibition) at 200 ppm [2] | mortality at 200 ppm [3, 9] | mortality at 24 ppm [4, 10] | mortality at 12 ppm [5, 11] | mortality at 200 ppm [6, 12]

Cc1ncc(OC[C@H](C)NS(=O)(=O)C(F)(F)F)cc1C(=O)NC1CON(CC(F)(F)F)C1=O (stereo partly drawn) [Compound P-30, 2-methyl-N-[3-oxo-2-(2,2,2-trifluoroethyl)isoxazolidin-4-yl]-5-[(2S)-2-(trifluoromethylsulfonylamino)propoxy]pyridine-3-carboxamide]
≥ 80%: mortality at 200 ppm [7]

Cc1ncc(OC[C@H](C)NS(=O)(=O)C(F)(F)F)cc1C(=O)NC1CCN(c2ccc(F)cc2)C1=O (stereo partly drawn) [Compound P-35, N-[1-(4-fluorophenyl)-2-oxo-pyrrolidin-3-yl]-2-methyl-5-[(2S)-2-(trifluoromethylsulfonylamino)propoxy]pyridine-3-carboxamide]
≥ 80%: mortality at 200 ppm [7]

CCNC(=O)c1cc(OC[C@H](C)NS(=O)(=O)C(F)(F)F)cnc1Cl [Compound P-50, 2-chloro-N-ethyl-5-[(2S)-2-(trifluoromethylsulfonylamino)propoxy]pyridine-3-carboxamide]
≥ 80%: percent effect (mortality or growth inhibition) at 200 ppm [2] | mortality at 200 ppm [3, 9] | mortality at 12 ppm [5, 11]

C[C@@H](COc1cnc(Cl)c(C(=O)NC2CON(CC(F)(F)F)C2=O)c1)NS(=O)(=O)C(F)(F)F (stereo partly drawn) [Compound P-54, 2-chloro-N-[3-oxo-2-(2,2,2-trifluoroethyl)isoxazolidin-4-yl]-5-[(2S)-2-(trifluoromethylsulfonylamino)propoxy]pyridine-3-carboxamide]
≥ 80%: mortality at 200 ppm [1, 8] | mortality at 200 ppm [3, 9] | mortality at 24 ppm [4, 10] | mortality at 12 ppm [5, 11]

C[C@@H](COc1cnc(Cl)c(C(=O)NC(C)(C)C#N)c1)NS(=O)(=O)C(F)(F)F [Compound P-57, 2-chloro-N-(1-cyano-1-methyl-ethyl)-5-[(2S)-2-(trifluoromethylsulfonylamino)propoxy]pyridine-3-carboxamide]
≥ 80%: mortality at 200 ppm [1, 8] | mortality at 200 ppm [3, 9] | mortality at 24 ppm [4, 10] | mortality at 12 ppm [5, 11] | mortality at 200 ppm [6, 12]

C[C@@H](COc1cnc(Cl)c(C(=O)N(C)C2CC2)c1)NS(=O)(=O)C(F)(F)F [Compound P-58, 2-chloro-N-cyclopropyl-N-methyl-5-[(2S)-2-(trifluoromethylsulfonylamino)propoxy]pyridine-3-carboxamide]
≥ 80%: mortality at 200 ppm [1, 8] | percent effect (mortality or growth inhibition) at 200 ppm [2] | mortality at 200 ppm [3, 9] | mortality at 24 ppm [4, 10] | mortality at 12 ppm [5, 11]

COCN([C@@H](C)COc1cnc(C)c(C(=O)NC2CC2)c1)S(=O)(=O)C(F)(F)F [Compound P-61, N-cyclopropyl-5-[(2S)-2-[methoxymethyl (trifluoromethylsulfonyl)amino]propoxy]-2-methyl-pyridine-3-carboxamide]
≥ 80%: percent effect (mortality or growth inhibition) at 200 ppm [2]

Cc1ncc(OC[C@H](C)NS(=O)(=O)C(F)(F)F)cc1C(=O)NC1CC1 [Compound P-62, N-cyclopropyl-2-methyl-5-[(2S)-2-(trifluoromethylsulfonylamino)propoxy]pyridine-3-carboxamide]
≥ 80%: mortality at 200 ppm [7]

Cc1cnc(OC[C@H](C)NS(=O)(=O)C(F)(F)F)cc1C(=O)NC12CC(C1)C2 [Compound P-66, N-(1-bicyclo[1.1.1]pentanyl)-5-methyl-2-[(2S)-2-(trifluoromethylsulfonylamino)propoxy]pyridine-4-carboxamide]
≥ 80%: percent effect (mortality or growth inhibition) at 200 ppm [2]

Cc1cnc(OC[C@H](C)NS(=O)(=O)C(F)(F)F)cc1C(=O)NCCOc1ccccc1F [Compound P-71, N-[2-(2-fluorophenoxy)ethyl]-5-methyl-2-[(2S)-2-(trifluoromethylsulfonylamino)propoxy]pyridine-4-carboxamide]
≥ 80%: percent effect (mortality or growth inhibition) at 200 ppm [2]
